Experiment [1] has as its target T1, full-length C1r (Homo sapiens, UniProt P00736).
T1 construct: purchased Complement Technology (CompTech)
T1 sequence (P00736 18-463 limits assumed): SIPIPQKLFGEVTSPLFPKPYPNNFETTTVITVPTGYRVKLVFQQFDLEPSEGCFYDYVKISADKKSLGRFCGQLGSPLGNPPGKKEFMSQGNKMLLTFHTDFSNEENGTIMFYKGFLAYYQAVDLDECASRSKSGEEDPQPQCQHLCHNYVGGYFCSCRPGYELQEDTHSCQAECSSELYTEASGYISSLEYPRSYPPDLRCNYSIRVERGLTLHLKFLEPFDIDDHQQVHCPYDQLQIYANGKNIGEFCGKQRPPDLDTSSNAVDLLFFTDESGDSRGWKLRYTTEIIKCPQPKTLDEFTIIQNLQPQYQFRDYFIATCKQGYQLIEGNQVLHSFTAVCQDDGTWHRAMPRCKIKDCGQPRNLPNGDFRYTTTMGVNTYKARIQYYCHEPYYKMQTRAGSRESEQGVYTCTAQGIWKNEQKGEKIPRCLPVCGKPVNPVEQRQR
T1 sequence (P00736 464-705 limits assumed): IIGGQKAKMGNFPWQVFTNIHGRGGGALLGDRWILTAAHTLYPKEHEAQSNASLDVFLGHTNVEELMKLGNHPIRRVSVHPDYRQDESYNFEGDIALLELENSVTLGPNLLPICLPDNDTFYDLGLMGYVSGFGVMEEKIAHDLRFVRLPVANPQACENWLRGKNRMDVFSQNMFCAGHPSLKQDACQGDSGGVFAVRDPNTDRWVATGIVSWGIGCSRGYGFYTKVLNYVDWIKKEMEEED
The experiment is described as follows: SPR dose-dependent binding, steady-state affinity. As to the method: All SPR experiments were carried out using a Biacore T200 (GE Healthcare, Chicago, IL, USA) at 25 °C. For all experiments, a running buffer (HBS-T) of 20 mM HEPES (pH 7.3), 140 mM NaCl, 0.005% (v/v) Tween-20, 5% DMSO (v/v) was used. For each experiment, DMSO calibration curves ranging from 4% to 5.5% DMSO (v/v) were collected at the beginning, end, and every 50 cycles throughout the duration of the experiment. All experiments were performed using HC1500M sensor chips (Xantec, Duesseldorf, Germany). In total, 10 sensor chips and 16 ligand immobilized surfaces were created over the course of this study (detailed in Table S2). In all cases, C1r proteins were immobilized onto chip surfaces using amine-coupling chemistry with 1-ethyl-3-(3-dimethylaminopropyl)-carbodiimide) (EDC), N-hydroxysuccinimide (NHS), followed by ethanolamine. Briefly, 100 mM of EDC and NHS were mixed and injected to activate the chip surface followed by the C1r protein ligand captured at a defined resonance unit (RU) level, followed by reaction quenching with 100 mM ethanolamine pH 8.5. Flow cell 1 was always used as a reference cell (no ligand), unless otherwise noted. All sensorgrams were reference and blank subtracted and analyzed using T200 Evaluation Software (GE Healthcare, Chicago, IL, USA).
To further evaluate hit compounds from the initial SPR screen, dose-dependent SPR binding assays were carried out. Three replicate flow cells were used containing both low and high immobilization densities of C1r (see Table S2). Hit compounds were tested for dose-dependent binding to full-length C1r using a compound concentration range of 7.8–500 µM. T200 evaluation software was used to calculate steady-state affinities for each compound by fitting sensorgrams from each variable concentration injection dataset using a 1:1 Langmuir model of interaction constrained by a theoretical experimental binding response based on the mol. wt. of each compound and derived as stated above. KD values are reported as the mean ± the standard deviation from at least three independent measurements.

The test system of experiment [2] is classical pathway. The experiment is described as follows: Classical pathway-specific ELISA-based complement inhibition assay (C4b deposition, IgM-coated plate, human serum). It counts as biochemical. Conditions: single 500 µM concentration, triplicate, 1% normal human serum, unpaired t-test p < 0.05. Here is the method:
To carry out classical pathway ELISA-based inhibition assays, IgM was dissolved in coating buffer (100 mM Na2CO3/NaHCO3, pH 9.6) to a final concentration of 3 µg/mL and was dispensed into 96-well plates at 100 µL per well. Mannan was dissolved to 2 µg/mL and lipopolysaccharides (LPS) were dissolved to 10 µg/mL in coating buffer for use in lectin and alternative pathway inhibition assays, respectively. Immobilization was allowed to proceed overnight at 25 °C. The immobilization reagent was then removed, followed by three washes in washing buffer (50 mM Tris pH 8.0, 200 mM NaCl, 0.05% (v/v) Tween-20), and blocked using 100 µL of 1% (w/v) bovine serum albumin in PBS-T for 1 h at 37°C. Blocking buffer was removed and plates were washed three times in washing buffer. Next, 500 µM of each compound, 5% (v/v) DMSO, and 1% (v/v) normal human serum (Innovative Research) (final concentrations) were dissolved in classical/lectin pathway ELISA buffer (20 mM HEPES (pH 7.3), 0.1% (w/v) gelatin, 140 mM NaCl, 2 mM CaCl2, 0.5 mM MgCl2) and added to the IgM-coated plate for 1 h at 37 °C. For the lectin pathway-specific ELISAs shown in Figure 5D, we used C1q-depleted serum from CompTech at 2% (v/v) and thus the classical pathway assays for this analysis were also performed using serum from CompTech at 2% (v/v). For the alternative pathway, 20% (v/v) normal human serum (CompTech) (final concentration) and alternative pathway ELISA buffer (20 mM HEPES, (pH 7.5), 0.1% (w/v) gelatin, 140 mM NaCl, 2 mM CaCl2, 0.5 mM MgCl2) were used in place of classical/lectin pathway ELISA buffer. Plates were then washed three times in wash buffer and each well was filled with 100 µL of α-C4 (HYB 162-02, Santa Cruz Biotechnology) diluted 1:300 for classical and lectin pathway assays and 100 µL of C3b (WM-1, Sigma) diluted 1:300 for alternative pathway assays. Plates were again incubated at 37 °C for 1 h, washed three times, filled with 100 µL of HRP-conjugated goat-α-mouse secondary antibody (diluted 1:3000) (Thermo Scientific, Waltham, MA, USA), and rocked gently for 1 h at 25 °C. After three more washes, 50 µl of substrate (1-step Ultra TMB, Thermo Scientific, Waltham, MA, USA) was added to each well and rocked for 15 min in the dark at 25 °C. The reaction was stopped with 50 µL of 0.16 M sulfuric acid, and the plate was read at 450 nm using an EnSight multimode plate reader (Perkin-Elmer). Each column contained a positive control for full complement activity (5% (v/v) blank DMSO with 1% (v/v) serum) and a negative control for no complement activity (5% (v/v) blank DMSO and no serum). Positive controls (1% (v/v) serum, no inhibitor) were defined as 100% C4b or C3b signal whereas negative controls (no serum) were defined as 0% C4b or C3b signal for each column. Compounds that inhibited complement deposition relative to the control were then evaluated using the same assay setup across a two-fold variable concentration series for each compound (7.8–500 µM). […] All experiments were performed no less than three times.
Statistical analyses were performed using GraphPad Prism version 8. For complement inhibition assays, measures of statistical significance for single-dose experiments were assessed using unpaired Student’s t-tests compared to no inhibitor controls (pathway ELISAs) or non-binding control compounds (classical pathway ELISA). Statistical significance was defined as p < 0.05. Calculation of IC50 values from dose-dependent complement assays were obtained by non-linear regression analysis using a using an inhibitor vs. response model and with 95% confidence intervals reported. For non-linear regression analyses, the top and bottom of each curve were constrained to 100 and 0, respectively.

The structures appear in SMILES notation.

`CN1c2ccccc2N(C)C1c1ccccc1` [CMP-4]: the affinity in experiment [1] (1:1 steady-state binding model, mean ± S.D. from three independent injection series, 25 °C), expressed as Kd, was 720 µM. The “Ligand efficiency (LE)” value in experiment [1] (LE = ΔG/number of non-hydrogen atoms, ΔG = -RT x ln KD,C1r, using KD values of Fig. 3) was 0.25. Besides, in experiment [2], the “inhibition of classical pathway (C4b deposition) relative to non-binding control compound” value is reported as “statistically significant inhibitory activity”.

One may read the Kd as the constant that tells how readily two partners part at equilibrium. Low readings indicate higher affinity, high ones lower affinity.

The record behind these values is article PMC7504721, “Targeting the Initiator Protease of the Classical Pathway of Complement Using Fragment-Based Drug Discovery” (Molecules, 2020).
